The results in this text go back to patent EP0031561B1, “A rectally administered suppository comprising a drug and an adjuvant” (Merck & Co., Inc., priority 1979, dated 1981).

Data set [1] can be described thus: in situ perfusion method of the rectum (perfusate recirculated through the rat rectum; drug remaining in the perfusate).
Method: In this experiment, the amount of remaining theophylline, originally at a concentration of about 200 mg/ml, in aqueous solution and continually recirculated or perfused to the rectal compartment of the rat, at the end of one hour, is shown as the lower plot for studies carried out in the presence of 0.2% sodium salicylate, is shown as the upper plot.
A second cannula is inserted through the anus 1 cm inside the rectum and secured by ligation. Thus, about 2 cm of the rectum is exposed to the perfusate. The perfustate (6 ml) is circulated at a rate of 2 ml/min at 38°C. As perfustate, 1/15 M-phosphate buffer solutions are used and the ionic strength of the perfusate is adjusted to 0.75 with sodiumchloride as necessary. […] The amount of drug remaining in the perfusate is analyzed as a function of time by appropriate methods, e.g., by high-pressure liquid chromatography.
A second cannula is inserted through the anus 1 cm. inside the rectum and secured by ligation. Thus, about 2 cm of the rectum is exposed to the perfusate. The perfusate (6 ml) is circulated at a rate of 2 ml/min at 38°C. As perfusate, 1/15 M-phosphate buffer solutions are used and the ionic strength of the perfusate is adjusted to 0.75 with sodium chloride as necessary. […] The amount of drug remaining in the perfusate is analyzed as a function of time by appropriate methods, e.g. by high-pressure liquid chromatography.
For data set [2] the following is noted: dog, in vivo.
Method: Four male beagle dogs weighing 9.5-11 kg are used and are fasted for two days prior to experimentation. Witepsol H-15 is used as an excipient to prepare the suppository formulation of cefmetazole. Microenema formulations are prepared with aqueous 0.02M phosphate buffer with a final pH of 7.4. Either a 1 g suppository or a 1 ml microenema is given to each dog. The formulations may contain varying amounts of adjuvant. Blood samples are taken from the foreleg vein at predetermined sampling times after dosing. Blood samples are heparinized and centrifuged at 3,000 rpm for 10 minutes. The concentration of cefmetazole in the plasma of the dogs is analyzed as a function of time using plasma aliquots for the assay of cefmetazole.

For the molecule `Cn1c(=O)c2[nH]cnc2n(C)c1=O` [theophylline, 3,7-Dihydro-1,3-dimethyl-1H-purine-2,6-dione], the “effect of the salicylate on the rate of absorption of theophylline from the rectal compartment” value in data set [1] (Figure 1, theophylline about 200 mg/ml aqueous solution, amount remaining at end of one hour, 0.2% sodium salicylate, effect greatest below pH 5.5 and above pH 7.5) is “marked effect”.

For `CO[C@@]1(NC(=O)CSCC#N)C(=O)N2C(C(=O)O)=C(CSc3nnnn3C)CS[C@@H]21` [cefmetazole, Cefmetazole], in data set [2], the “bioavailability, suppository formulations versus microenema formulations” value was “greater bioavailability” and the “rectal absorption of cefmetazole” value is on record as “significantly enhanced”.

For the molecule `O=C(O)c1cc(O)ccc1O` [gentisic acid], the “adjuvant effect on the rectal absorption” value in data set [1] (Figure 4 (theophylline)) is reported as “evident”.
